Source: the supplement of paper PMC9151546
Structures can show the parent of a compound that is named as a salt. ± gives the standard deviation of the averaged measurements.

Tests used:
CHO-K1 [1] = assay: benchmark concentration for 30% increase in micronucleus frequency (BMC30); higher = less potent clastogen
Experimental: (§1)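 Benchmark concentration modelling (PROAST, Hill/exponential model families) of the 19-concentration flow-cytometric micronucleus assay in CHO-K1 cells, with and without rat liver S9. Only non-cytotoxic and adequate (relative survival >=40%) concentrations were used. BMR was a 30% increase in %MN (BMC30) or a 60% increase in %hypodiploid (BMC60) over control.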

CHO-K1 [2] = assay: benchmark concentration for 60% increase in hypodiploid frequency (BMC60); higher = less potent aneugen
Experimental: as §1

[3] = S9 metabolic activation: with S9
[4] = S9 metabolic activation: without S9

Structure (SMILES)	benchmark concentration (CHO-K1 [1]; [3]) [µM]	benchmark concentration (CHO-K1 [2]; [4]) [µM]	benchmark concentration (CHO-K1 [1]; [4]) [µM]	benchmark concentration (CHO-K1 [2]; [3]) [µM]
Oc1cc(Cl)c(Cl)cc1Cl [2,4,5-Trichlorophenol]	6.5	38		
NNC(=O)c1ccncc1 [Isoniazid]	21	51		
Cc1cccc(C)c1O [2,6-Dimethylphenol]		110	87	
CCOC(=O)c1ccccc1C(=O)OCC [Diethyl phthalate]		99	100	
O=C(O)C1C(C(=O)O)C2(Cl)C(Cl)=C(Cl)C1(Cl)C2(Cl)Cl (configuration not stated) [Chlorendic acid]		97	110	
Oc1ccc2ccccc2c1N=Nc1ccccc1 [C.I. Solvent Yellow 14]		11	23	91
CCc1ccc(CCOc2ccc(CC3SC(=O)NC3=O)cc2)nc1 (configuration not stated) [Pioglitazone hydrochloride]		7.6	< 4.5	
O=C1c2c(O)cccc2Cc2cccc(O)c21 [Anthralin]		16	110	
CN(C)c1ccc(C(=C2C=CC(=[N+](C)C)C=C2)c2ccc(N(C)C)cc2)cc1 [Gentian Violet]	0.91			0.23
ClC1=C(Cl)C2(Cl)C3C4OC4C(Cl)C3C1(Cl)C2(Cl)Cl (configuration not stated) [Heptachlor epoxide]	45	28	25	
CCN(CC)N=O [N-Nitrosodiethylamine]		31	21	
CC1(C)NC(=O)N(c2ccc([N+](=O)[O-])c(C(F)(F)F)c2)C1=O [Nilutamide]		39	21	
C=CC(=O)NCNC(=O)C=C [N,N'-Methylenebisacrylamide]		62	44	
CCC(C)c1ccccc1O (configuration not stated) [2-(Butan-2-yl)phenol]	23	170		30
CC(C)(c1ccccc1)c1ccc(O)cc1 [4-Cumylphenol]		44	26	
CC(C)(C)c1cc(O)ccc1O [tert-Butylhydroquinone]	22			23
NC(=O)NO [Hydroxyurea]		29	19	
CC(=O)OC1CC(C)OC(C)O1 (configuration not stated) [Dimethoxane]	86		30	59
ClC(Cl)=C(c1ccc(Cl)cc1)c1ccc(Cl)cc1 [p,p'-DDE]	51	16	29	
ClC1=C(Cl)[C@]2(Cl)[C@@H]3[C@@H]4C[C@@H]([C@H]5O[C@@H]45)[C@@H]3[C@@]1(Cl)C2(Cl)Cl [Dieldrin]		90	74	
Cc1cccc([N+](=O)[O-])c1C [1,2-Dimethyl-3-nitrobenzene]	59	38	41	
C[C@]12CC[C@@H]3c4ccc(O)cc4CC[C@H]3[C@@H]1CC[C@@H]2O [17beta-Estradiol]		9.9	8.1	
ClCC(Cl)CCl [1,2,3-Trichloropropane]		72	46	

Structure (SMILES)	benchmark concentration (CHO-K1 [1]; [3]) [µM]	benchmark concentration (CHO-K1 [2]; [4]) [µM]	benchmark concentration (CHO-K1 [1]; [4]) [µM]	benchmark concentration (CHO-K1 [2]; [3]) [µM]
Cc1cc(=O)[nH]c(=S)[nH]1 [6-Methyl-2-thiouracil]		57	< 4.5	83
c1ccc(NNc2ccccc2)cc1 [1,2-Diphenylhydrazine]	22	68	46	45
O=c1c(-c2ccc(O)cc2)coc2cc(O)ccc12 [Daidzein]	14			47
Cn1cnc([N+](=O)[O-])c1Sc1ncnc2[nH]cnc12 [Azathioprine]		18	83	170
CCCCC=O [Pentanal]	60	140		
O=C(O)C(Cl)Cl [Dichloroacetic acid]		95	94	
NC(=Nc1ccccc1)Nc1ccccc1 [1,3-Diphenylguanidine]		67	78	
CCNc1ccccc1 [N-Ethylaniline]		35	77	
O=C1CN(/N=C/c2ccc([N+](=O)[O-])o2)C(=O)N1 [Nitrofurantoin]		31	55	
CCSC(=O)N1CCCCCC1 [Molinate]	41	61.5 ± 3.5		
O=NN(c1ccccc1)c1ccccc1 [N-Nitrosodiphenylamine]	120	25	72	
O=C(O)C(F)(F)C(F)(F)C(F)(F)C(F)(F)C(F)(F)C(F)(F)C(F)(F)C(F)(F)C(F)(F)F [PFDA]	73	73		
Cc1ccc2ncccc2c1 [6-Methylquinoline]	22	120		51
CN(C)c1ccc(Cc2ccc(N(C)C)cc2)cc1 [4,4'-Methylenebis(N,N-dimethylaniline)]	56	38		75
c1ccc(/N=N/c2ccccc2)cc1 [Azobenzene]	32	87		37
c1cc2ccc3cccc4ccc(c1)c2c34 [Pyrene]	40	110		
COC(=O)NC(=S)Nc1ccccc1NC(=S)NC(=O)OC [Thiophanate-methyl]		20.5 ± 3.5	16.7 ± 4.2	
O=C1NC(=O)C(c2ccccc2)(c2ccccc2)N1 [5,5-Diphenylhydantoin]		17	13	
Nc1ccc([N+](=O)[O-])cc1 [4-Nitroaniline]		100	11	
COP(=O)(OC)OC=C(Cl)Cl [Dichlorvos]		90	66	
OCc1ccccc1 [Benzyl alcohol]		93	43	
Oc1ccc(Cl)cc1Cl [2,4-Dichlorophenol]	17	20	17	
c1ccc2c(c1)Nc1ccccc1S2 [Phenothiazine]	17			25

Structure (SMILES)	benchmark concentration (CHO-K1 [1]; [3]) [µM]	benchmark concentration (CHO-K1 [2]; [4]) [µM]	benchmark concentration (CHO-K1 [1]; [4]) [µM]	benchmark concentration (CHO-K1 [2]; [3]) [µM]
ClC1(Cl)C2(Cl)C3(Cl)C4(Cl)C(Cl)(Cl)C5(Cl)C3(Cl)C1(Cl)C5(Cl)C24Cl (configuration not stated) [Mirex]		28	36	
CC(O)CO (configuration not stated) [1,2-Propylene glycol]		44	130	
NC(=O)N/N=C/c1ccc([N+](=O)[O-])o1 [Nitrofurazone]		68	24	
Nc1nc(=S)c2[nH]cnc2[nH]1 [6-Thioguanine]	33		< 4.5	74
CN(C)C(=O)Nc1ccc(Cl)cc1 [Monuron]		82	8.6	
O=C1CCCCCN1 [Caprolactam]		150	44	
COc1ccc(C)cc1N [2-Methoxy-5-methylaniline]		89	48	
Nc1ccc(Cl)cc1 [4-Chloroaniline]		31	63	
c1cc2c3c(cccc3c1)CC2 [Acenaphthene]	59		78	89
OCCCBr [3-Bromo-1-propanol]		73	110	
CC(C)(c1cc(Br)c(O)c(Br)c1)c1cc(Br)c(O)c(Br)c1 [3,3',5,5'-Tetrabromobisphenol A]		37	44	28
CC(C)(OO)c1ccccc1 [Cumene hydroperoxide]		63	56	
Cc1ccc(O)cc1C [3,4-Dimethylphenol]		74	120	
N#CC(Br)Br [Dibromoacetonitrile]		15	32	
CN(C)c1ccc(N=NS(=O)(=O)O)cc1 [Fenaminosulf]		41	27	
CN(Cc1cnc2nc(N)nc(N)c2n1)c1ccc(C(=O)N[C@@H](CCC(=O)O)C(=O)O)cc1 [Methotrexate]		59	51	
CCCCc1oc2ccccc2c1C(=O)c1cc(I)c(OCCN(CC)CC)c(I)c1 [Amiodarone hydrochloride]	16			11
OCCCl [2-Chloroethanol]		130	60	
Cc1ccc(O)cc1 [p-Cresol]		79	73	
Nc1nc(=O)c2nc(CNc3ccc(C(=O)N[C@@H](CCC(=O)O)C(=O)O)cc3)cnc2[nH]1 [Folic acid]	57	110		
Cc1cc(-c2ccc(N)c(C)c2)ccc1N [3,3'-Dimethylbenzidine]		20	99	
